The values below come from US20170002048A1, “METHOD FOR PURIFYING AND RE[…] BODIES OF SCORPION TOXIN PROTEIN AND THEIR USE” (GUANGZHOU GLAM BIOTECHNOLOGY CO., LTD., priority 2015, published 2017).

This data set deals with HepG2 tumor. Put plainly: Anti-tumor activity in vivo, HepG2 mice model. Further details: species or system CD-1 nu/nu mice. Particulars: CHis6-rAGAP 1 and 2 mg/kg, 5-FU 25 mg/kg, every 2 days. The procedure:
The CD-1 nu/nu mice (thymus removed, bodyweight 16˜18 g, half male and half female) were purchased from Shanghai Experiment Animal Center of Chinese Academy of Sciences. The mice were subcutaneously injected 5×10^6 HepG2 cells to make a model, when the tumor volume was grew to about 100 mm^3, the mice were randomized into four groups, 10 mice in each group, the experiment groups were respectively injected 1 mg/kg and 2 mg/kg of CHis6-rAGAP, the positive control group were injected 25 mg/kg of 5-FU, the negative control group was injected with normal saline, the volumes were all 200 μl/2 days. The change of tumor volume and bodyweight of the mice were determined every 2 days, after 18 days the mice were killed, and the tumor were taken out. […] In order to evaluate the influence of CHis6-rAGAP and 5-FU on life quality of the mice, change of mice bodyweight was also determined during the experiment. […] Furthermore, after 18 days of drug administration, there was no death case in the mice of CHis6-rAGAP administration group, whereas 40% of the mice in 5-FU group were dead.

Regarding `O=c1[nH]cc(F)c(=O)[nH]1` [5-FU], the “death of mice after 18 days of drug administration” value is listed as 40%. For the same molecule, the “influence on bodyweight of the mice” value (18 days) was “reduced significantly”.
